Target: T1, CCR9 (Homo sapiens, UniProt P51686)
T1 construct: chemokine expressing cells (such as THP-1 cells for CCR2 assay or MOLT-4 cells for CCR9 assay); host or cells: MOLT-4
T1 sequence (P51686 1-369): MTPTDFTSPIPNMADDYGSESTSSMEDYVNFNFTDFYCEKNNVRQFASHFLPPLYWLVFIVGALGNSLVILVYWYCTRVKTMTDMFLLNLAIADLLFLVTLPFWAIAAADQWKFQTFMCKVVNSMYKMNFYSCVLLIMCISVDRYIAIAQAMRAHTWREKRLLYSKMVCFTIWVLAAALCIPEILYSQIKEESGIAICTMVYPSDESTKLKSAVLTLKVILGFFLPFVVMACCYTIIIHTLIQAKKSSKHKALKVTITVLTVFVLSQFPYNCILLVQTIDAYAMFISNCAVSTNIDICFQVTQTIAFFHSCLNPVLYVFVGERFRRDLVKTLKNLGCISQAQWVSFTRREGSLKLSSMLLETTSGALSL
Assay: CCR9 activity in one of the chemotaxis, binding or calcium mobilization assays
Format: cell-based
Conditions: assay not specified per compound
Description: Conventional migration assay was used to determine the efficacy of potential receptor antagonists in blocking migration mediated through chemokines (such as CCR2 or CCR9). This assay was routinely performed using the ChemoTX® microchamber system with a 5-μm pore-sized polycarbonate membrane. To begin such an assay, chemokine expressing cells (such as THP-1 cells for CCR2 assay or MOLT-4 cells for CCR9 assay) were harvested by centrifugation of cell suspension at 1000 RPM on a GS-6R Beckman centrifuge. The cell pellet was resuspended in chemotaxis buffer (HBSS with 0.1% BSA) at 10×10^6 cells/mL for CCR2 assay (5×10^6 cells/mL for CCR9 assay). Test compounds at desired concentrations were prepared from 10 mM stock solutions by serial dilutions in chemotaxis buffer. An equal volume of cells and compounds were mixed and incubated at room temperature for 15 minutes. Afterwards, 20 μL of the mixture was transferred onto the porous membrane of a migration microchamber, with 29 μL of chemokine ligand (0.1 nM chemokine MCP-1 protein for CCR2 assay or […] chemokine TECK protein for CCR9 assay) placed at the lower chamber. Following an incubation at 37° C. (90-minute for CCR2; 150-minute for CCR9), during which cells migrated against the chemokine gradient, the assay was terminated by removing the cell drops from atop the filter. To quantify cells migrated across the membrane, 5 μL of 7×CyQUANT® solution was added to each well in the lower chamber, and the fluorescence signal measured on a Spectrafluor Plus fluorescence plate reader (TECAN, Durham, N.C.). The degree of inhibition was determined by comparing migration signals between compound-treated and untreated cells. IC50 calculation was further performed by non-linear squares regression analysis using Graphpad Prism (Graphpad Software, San Diego, Calif.).
Calcium flux assay measures an increase in intracellular calcium following ligand-induced receptor activation. In the screen of chemokine antagonists, it was used as a secondary assay carried out on a FLIPR® machine (Molecular Devices, Mountain View, Calif.). To begin an assay, chemokine expressing cells (such as THP-1 cells for CCR2 assay or MOLT-4 cells for CCR9 assay) were harvested by centrifugation of cell suspension, and resuspended to 1.5×10^6 cells/mL in HBSS (with 1% fetal calf serum). Cells were then labeled with a calcium indicator dye Fluo-4 AM for 45 minutes at 37° C. with gentle shaking. Following incubation, cells were pelletted, washed once with HBSS and resuspended in the same buffer at a density of 1.6×10^6 cells/mL. One hundred microliters of labeled cells were mixed with 10 μL of test compound at the appropriate concentrations on an assay plate. Chemokine protein (MCP-1 at a final concentration of 0.1 nM for CCR2 assay or TECK at a final concentration of 25 nM for CCR9 assay) to activate the receptor. The degree of inhibition was determined by comparing calcium signals between compound-treated and untreated cells. IC50 calculations were further performed by non-linear squares regression analysis using Graphpad Prism (Graphpad Software, San Diego, Calif.). […]
In the tables below, structures and activity are provided for representative compounds described herein. Activity is provided as follows for either or both of the chemotaxis assay and/or calcium mobilization assays, described above.

SMILES | IC50
CC(O)c1nnc(-c2cc(Cl)c(F)cc2NS(=O)(=O)c2ccc(C(C)(C)C)cc2)n1C (centres unmarked) [Compound 59, 4-tert-butyl-N-(4-chloro-5-fluoro-2-(5-(1-hydroxyethyl)-4-methyl-4H-1,2,4-triazol-3-yl)phenyl)benzenesulfonamide] | < 1000 nM
Cn1c(-c2cc(Cl)c(F)cc2NS(=O)(=O)c2ccc(C(C)(C)C)cc2)nnc1C1CCOCC1 [Compound 116] | < 1000 nM
CCn1cnnc1-c1c(NS(=O)(=O)c2ccc(C(C)(C)C)cc2)ccc(Cl)c1F [Compound 25, 4-tert-butyl-N-(4-chloro-2-(4-ethyl-4H-1,2,4-triazol-3-yl)-3-fluorophenyl)benzenesulfonamide] | < 1000 nM
Cc1nnc(-c2ccc(F)cc2NS(=O)(=O)c2ccc(C(C)(C)C)cc2)n1C(C)C [Compound 24, 4-tert-butyl-N-(5-fluoro-2-(4-isopropyl-5-methyl-4H-1,2,4-triazol-3-yl)phenyl)benzenesulfonamide] | < 1000 nM
COCc1nnc(-c2cc(Cl)c(F)cc2NS(=O)(=O)c2ccc(C(C)(C)C)cc2)n1C1CCOC1 (centres unmarked) [Compound 52, 4-tert-butyl-N-(4-chloro-5-fluoro-2-(5-(methoxymethyl)-4-(tetrahydrofuran-3-yl)-4H-1,2,4-triazol-3-yl)phenyl)benzenesulfonamide] | < 1000 nM
CNCCn1c(C)nnc1-c1cc(Cl)ccc1NS(=O)(=O)c1ccc(C(C)(C)C)cc1 [Compound 126, 4-tert-butyl-N-(4-chloro-2-(5-methyl-4-(2-(methylamino)ethyl)-4H-1,2,4-triazol-3-yl)phenyl)benzenesulfonamide] | < 1000 nM
CC(C)(C)c1ccc(S(=O)(=O)Nc2ccc(Cl)cc2-c2nncn2[C@@H]2CCNC2)cc1 [Compound 75] | < 1000 nM
CC(C)n1c(-c2cc(Cl)ccc2NS(=O)(=O)c2ccc(C(C)(C)C)cc2)nnc1C1(C)CCOCC1 [Compound 150] | < 1000 nM
CC(C)n1cnnc1-c1cc(Cl)ccc1NS(=O)(=O)c1ccc(C(C)(C)C)cc1 [Compound 1, 4-tert-butyl-N-(4-chloro-2-(4-isopropyl-4H-1,2,4-triazol-3-yl)phenyl)benzenesulfonamide] | < 1000 nM
CCn1c(C)nnc1-c1cc(Cl)ccc1NS(=O)(=O)c1ccc(OC(C)C)cc1 [Compound 17, N-(4-chloro-2-(4-ethyl-5-methyl-4H-1,2,4-triazol-3-yl)phenyl)-4-isopropoxybenzenesulfonamide] | < 1000 nM
Cn1c(-c2ccccn2)nnc1-c1cc(Cl)ccc1NS(=O)(=O)c1ccc(C(C)(C)C)cc1 [Compound 97, 4-tert-butyl-N-(4-chloro-2-(4-methyl-5-(pyridin-2-yl)-4H-1,2,4-triazol-3-yl)phenyl)benzenesulfonamide] | < 1000 nM
Cn1c(CCO)nnc1-c1cc(Cl)c(F)cc1NS(=O)(=O)c1ccc(C(C)(C)C)cc1 [Compound 137, 4-tert-butyl-N-(4-chloro-5-fluoro-2-(5-(2-hydroxyethyl)-4-methyl-4H-1,2,4-triazol-3-yl)phenyl)benzenesulfonamide] | < 1000 nM
CC(C)(C)c1ccc(S(=O)(=O)Nc2cc(F)c(Cl)cc2-c2nncn2C2CCCOC2)cc1 (centres unmarked) [Compound 108] | < 1000 nM
Cn1c(-c2cocn2)nnc1-c1cc(Cl)c(F)cc1NS(=O)(=O)c1ccc(C(C)(C)C)cc1 [Compound 111] | < 1000 nM
CC(=O)c1nnc(-c2cc(Cl)c(F)cc2NS(=O)(=O)c2ccc(C(C)(C)C)cc2)n1C [Compound 58, N-(2-(5-acetyl-4-methyl-4H-1,2,4-triazol-3-yl)-4-chloro-5-fluorophenyl)-4-tert-butylbenzenesulfonamide] | < 1000 nM
CCc1nnc(-c2cc(Cl)ccc2NS(=O)(=O)c2ccc(C(C)(C)C)cc2)n1C [Compound 105, 4-tert-butyl-N-(4-chloro-2-(5-ethyl-4-methyl-4H-1,2,4-triazol-3-yl)phenyl)benzenesulfonamide] | < 1000 nM
Cn1c(C(N)=O)nnc1-c1cc(Cl)c(F)cc1NS(=O)(=O)c1ccc(C(C)(C)C)cc1 [Compound 55, 5-(2-(4-tert-butylphenylsulfonamido)-5-chloro-4-fluorophenyl)-4-methyl-4H-1,2,4-triazole-3-carboxamide] | < 1000 nM
Cc1nnc(-c2ccc(Cl)cc2NS(=O)(=O)c2ccc(C(C)(C)C)cc2)n1C(C)C [Compound 95, 4-tert-butyl-N-(5-chloro-2-(4-isopropyl-5-methyl-4H-1,2,4-triazol-3-yl)phenyl)benzenesulfonamide] | < 1000 nM
Cc1nnc(-c2cc(F)c(F)cc2NS(=O)(=O)c2ccc(C(C)(C)C)cc2)n1C [Compound 100, 4-tert-butyl-N-(2-(4,5-dimethyl-4H-1,2,4-triazol-3-yl)-4,5-difluorophenyl)benzenesulfonamide] | < 1000 nM
CC(=O)NCCn1c(C)nnc1-c1cc(Cl)ccc1NS(=O)(=O)c1ccc(C(C)(C)C)cc1 [Compound 27, N-(2-(3-(2-(4-tert-butylphenylsulfonamido)-5-chlorophenyl)-5-methyl-4H-1,2,4-triazol-4-yl)ethyl)acetamide] | < 1000 nM
CCn1c(-c2cc(Cl)c(F)cc2NS(=O)(=O)c2ccc(C(C)(C)C)cc2)nnc1C(C)C [Compound 87, 4-tert-butyl-N-(4-chloro-2-(4-ethyl-5-isopropyl-4H-1,2,4-triazol-3-yl)-5-fluorophenyl)benzenesulfonamide] | < 1000 nM
Cn1c(-c2cc(Cl)ccc2NS(=O)(=O)c2ccc(C(C)(C)C)cc2)nnc1C1CCCO1 (centres unmarked) [Compound 102] | < 1000 nM
CC(C)c1nnc(-c2cc(Cl)ccc2NS(=O)(=O)c2ccc(C(C)(C)C)cc2)n1C [Compound 8, 4-tert-butyl-N-(4-chloro-2-(5-isopropyl-4-methyl-4H-1,2,4-triazol-3-yl)phenyl)benzenesulfonamide] | < 1000 nM
CCn1c(-c2cc(Cl)ccc2NS(=O)(=O)c2ccc(C(C)(C)C)cc2)nnc1C(C)C [Compound 43, 4-tert-butyl-N-(4-chloro-2-(4-ethyl-5-isopropyl-4H-1,2,4-triazol-3-yl)phenyl)benzenesulfonamide] | < 1000 nM
Cc1nnc(-c2cc(Cl)ccc2NS(=O)(=O)c2ccc(N3CCOCC3)c(F)c2)n1C [Compound 135, N-(4-chloro-2-(4,5-dimethyl-4H-1,2,4-triazol-3-yl)phenyl)-3-fluoro-4-morpholinobenzenesulfonamide] | < 1000 nM
CC(C)Oc1ccc(S(=O)(=O)Nc2ccc(Cl)cc2-c2nncn2C(C)C)cc1 [Compound 69, N-(4-chloro-2-(4-isopropyl-4H-1,2,4-triazol-3-yl)phenyl)-4-isopropoxybenzenesulfonamide] | < 1000 nM
CC(C)n1c(N)nnc1-c1cc(Cl)ccc1NS(=O)(=O)c1ccc(C(C)(C)C)cc1 [Compound 92, N-(2-(5-amino-4-isopropyl-4H-1,2,4-triazol-3-yl)-4-chlorophenyl)-4-tert-butylbenzenesulfonamide] | < 1000 nM
Cn1c(-c2cc(Cl)c(F)cc2NS(=O)(=O)c2ccc(C(C)(C)C)cc2)nnc1C(C)(C)O [Compound 57, 4-tert-butyl-N-(4-chloro-5-fluoro-2-(5-(2-hydroxypropan-2-yl)-4-methyl-4H-1,2,4-triazol-3-yl)phenyl)benzenesulfonamide] | < 1000 nM
CCc1nnc(-c2cc(Cl)c(F)cc2NS(=O)(=O)c2ccc(C(C)(C)C)cc2)n1C [Compound 110, 4-tert-butyl-N-(4-chloro-2-(5-ethyl-4-methyl-4H-1,2,4-triazol-3-yl)-5-fluorophenyl)benzenesulfonamide] | < 1000 nM

Reference: US8153818B2, “Triazolyl phenyl benzenesulfonamides” (ChemoCentryx, Inc., priority 2006, dated 2012)
